Source: the supplement of paper PMC6045584
± gives the standard deviation of the averaged measurements.

Assays:
EVEROLIMUS = compound: CO[C@H]1C[C@@H]2CC[C@@H](C)[C@@](O)(O2)C(=O)C(=O)N2CCCC[C@H]2C(=O)O[C@H]([C@H](C)C[C@@H]2CC[C@@H](OCCO)[C@H](OC)C2)CC(=O)[C@H](C)/C=C(\C)[C@@H](O)[C@@H](OC)C(=O)[C@H](C)C[C@H](C)/C=C/C=C/C=C/1C [EVEROLIMUS]; experiment: surviving fraction relative to DMSO-only wells; higher = less growth inhibition; details: exposure time: 5 days
Outline: (§1)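 Lines were retained only if, across three screens, replicate Pearson r was >0.7 and median Z' was >0.3. Viability was measured as CellTiter-Glo luminescence and reported as surviving fraction relative to the median of DMSO-only wells. Readings followed 10 minutes at room temperature, after log-phase tumour cells seeded at 250–500 per well in 384-well plates had been exposed, from 24 hours after seeding, continuously for five days to inhibitors at 0.5, 1, 5, 10, 50, 100, 500 and 1000 nM.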

MK2206 = compound: NC1(c2ccc(-c3nc4ccn5c(=O)[nH]nc5c4cc3-c3ccccc3)cc2)CCC1 [MK2206]; experiment: as above; details: exposure time: 5 days
Outline: as §1

| Test System | surviving fraction (EVEROLIMUS; 0.5 nM) | surviving fraction (EVEROLIMUS; 1 nM) | surviving fraction (EVEROLIMUS; 5 nM) | surviving fraction (EVEROLIMUS; 10 nM) | surviving fraction (EVEROLIMUS; 50 nM) | surviving fraction (EVEROLIMUS; 100 nM) | surviving fraction (EVEROLIMUS; 500 nM) | surviving fraction (EVEROLIMUS; 1000 nM) | surviving fraction (MK2206; 0.5 nM) | surviving fraction (MK2206; 1 nM) | surviving fraction (MK2206; 5 nM) | surviving fraction (MK2206; 10 nM) | surviving fraction (MK2206; 50 nM) | surviving fraction (MK2206; 100 nM) | surviving fraction (MK2206; 500 nM) | surviving fraction (MK2206; 1000 nM) |
| --- | --- | --- | --- | --- | --- | --- | --- | --- | --- | --- | --- | --- | --- | --- | --- | --- |
| JIMT1 BREAST | 0.752 ± 0.021 | 0.663 ± 0.014 | 0.571 ± 0.034 | 0.561 ± 0.022 | 0.56 ± 0.034 | 0.55 ± 0.03 | 0.5 ± 0.016 | 0.494 ± 0.036 | 0.965 ± 0.025 | 0.996 ± 0.017 | 0.999 ± 0.049 | 1.02 ± 0.01 | 0.929 ± 0.012 | 0.917 ± 0.027 | 0.68 ± 0.023 | 0.633 ± 0.034 |
| KPD BONE | 0.603 ± 0.044 | 0.529 ± 0.026 | 0.457 ± 0.016 | 0.422 ± 0.019 | 0.408 ± 0.025 | 0.384 ± 0.017 | 0.343 ± 0.012 | 0.338 ± 0.02 | 1 ± 0.043 | 0.979 ± 0.031 | 0.944 ± 0.075 | 0.931 ± 0.047 | 0.634 ± 0.013 | 0.467 ± 0.024 | 0.252 ± 0.0083 | 0.195 ± 0.0091 |
| HMLE3 BREAST | 1.02 ± 0.065 | 0.956 ± 0.02 | 0.813 ± 0.036 | 0.682 ± 0.016 | 0.455 ± 0.063 | 0.402 ± 0.036 | 0.322 ± 0.044 | 0.306 ± 0.019 | 1.06 ± 0.11 | 1.13 ± 0.047 | 1.08 ± 0.01 | 1.09 ± 0.044 | 0.895 ± 0.14 | 0.843 ± 0.098 | 0.717 ± 0.052 | 0.617 ± 0.018 |
| RDES SOFT TISSUE | 1.09 ± 0.067 | 1.1 ± 0.099 | 1.11 ± 0.039 | 1.11 ± 0.087 | 0.981 ± 0.049 | 1.03 ± 0.12 | 1 ± 0.13 | 1.04 ± 0.063 | 1.14 ± 0.04 | 1.27 ± 0.13 | 1.22 ± 0.074 | 1.13 ± 0.032 | 1.06 ± 0.062 | 1.17 ± 0.1 | 1.2 ± 0.066 | 1.104 ± 0.0067 |
| T47D BREAST | 0.892 ± 0.044 | 0.815 ± 0.047 | 0.686 ± 0.041 | 0.637 ± 0.021 | 0.646 ± 0.021 | 0.664 ± 0.038 | 0.6 ± 0.018 | 0.603 ± 0.022 | 1.04 ± 0.03 | 1.06 ± 0.064 | 1 ± 0.036 | 0.945 ± 0.027 | 0.755 ± 0.032 | 0.654 ± 0.042 | 0.482 ± 0.021 | 0.449 ± 0.027 |
| HU09 BONE | 0.669 ± 0.016 | 0.602 ± 0.037 | 0.513 ± 0.0057 | 0.512 ± 0.048 | 0.49 ± 0.011 | 0.42 ± 0.011 | 0.382 ± 0.016 | 0.39 ± 0.023 | 0.85 ± 0.065 | 0.971 ± 0.0053 | 0.991 ± 0.18 | 1.06 ± 0.094 | 0.849 ± 0.039 | 0.63 ± 0.05 | 0.363 ± 0.034 | 0.272 ± 0.016 |
| NCIH441 LUNG | 1.15 ± 0.031 | 1.08 ± 0.098 | 1.183 ± 0.0021 | 1.04 ± 0.049 | 0.864 ± 0.097 | 1.03 ± 0.082 | 0.933 ± 0.056 | 0.876 ± 0.076 | 1.08 ± 0.034 | 1.18 ± 0.017 | 1.11 ± 0.034 | 1.08 ± 0.11 | 1.01 ± 0.059 | 1.07 ± 0.041 | 1.04 ± 0.073 | 0.994 ± 0.028 |
| ZR751 BREAST | 0.964 ± 0.017 | 0.715 ± 0.031 | 0.502 ± 0.054 | 0.5 ± 0.068 | 0.337 ± 0.014 | 0.353 ± 0.015 | 0.322 ± 0.038 | 0.339 ± 0.0066 | 0.962 ± 0.026 | 1.04 ± 0.088 | 0.678 ± 0.065 | 0.734 ± 0.064 | 0.407 ± 0.024 | 0.424 ± 0.027 | 0.308 ± 0.029 | 0.317 ± 0.029 |
| S68 BREAST | 0.839 ± 0.17 | 0.547 ± 0.045 | 0.479 ± 0.048 | 0.434 ± 0.049 | 0.356 ± 0.06 | 0.336 ± 0.043 | 0.26 ± 0.027 | 0.285 ± 0.024 | 1.15 ± 0.26 | 0.874 ± 0.16 | 1.15 ± 0.22 | 1.14 ± 0.17 | 0.974 ± 0.22 | 0.619 ± 0.088 | 0.229 ± 0.028 | 0.156 ± 0.044 |
| CAL51 BREAST | 0.684 ± 0.049 | 0.527 ± 0.046 | 0.406 ± 0.026 | 0.376 ± 0.0096 | 0.332 ± 0.029 | 0.283 ± 0.011 | 0.257 ± 0.039 | 0.26 ± 0.025 | 0.986 ± 0.05 | 1.09 ± 0.079 | 1.06 ± 0.031 | 1.02 ± 0.035 | 0.996 ± 0.043 | 0.993 ± 0.072 | 0.731 ± 0.027 | 0.56 ± 0.03 |
